Entries after “also recorded” stand apart in the source; their conditions may differ. Where two headings read alike, the source gives them in different places.
Experiments:
Assay type in all cases: physicochemical
Rate of solubility = conditions: compared with the free base and other salts tested
Hygroscopicity = test: Hygroscopicity
[1] = Solid-state stability of crystalline forms (XRPD); conditions: for stability in air: XRPD
From the text: Samples for X-ray powder diffraction (XRPD) data collection were gently ground by marble mortar and loaded into a crystallographic capillary (from Hampton Research, Quartz or Glass Type 10, 0.4 or 0.7 mm diameter). Diffraction patterns were collected at room temperature using CuKα radiation (λ=1.5418 Å) from a Rigaku rotating anode RU3HR, Osmic blue confocal optics, ¼ c goniometer and a Rigaku HTC image plate detector. 2D Images were collected while spinning φ axis with a detector to crystal distance of 250 mm. Data collection was controlled by CrystalClear software and 2D images were converted to 1D plot (2θ vs. Intensity) by Datasqueeze (intensity averaged over the azimuthal angle 0≦χ≦360° for […] 3-30° in 0.02° steps). In house program AstexXRPD was used for manipulation and visualisation of 1D XRPD patterns.

For CC(C)c1cc(C(=O)N2Cc3ccc(CN4CCN(C)CC4)cc3C2)c(O)cc1O.C[C@H](O)C(=O)O [(2,4-dihydroxy-5-isopropyl-phenyl)-[5-(4-methyl-piperazin-1-ylmethyl)-1,3-dihydro-isoindol-2-yl]-methanone L-lactate salt], the rate of solubility (Rate of solubility) was “better rate of solubility than the free base and other salts tested” and the hygroscopicity (Hygroscopicity) was “non-hygroscopic”.
In the case of CC(C)c1cc(C(=O)N2Cc3ccc(CN4CCN(C)CC4)cc3C2)c(O)cc1O [Form FB1, (2,4-dihydroxy-5-isopropyl-phenyl)-[5-(4-methyl-piperazin-1-ylmethyl)-1,3-dihydro-isoindol-2-yl]-methanone], the stability in air ([1]; listed as FB1) was “unstable in air and converts to form FB3; also recorded: converted completely to crystal form FB3”.
In the case of CC(C)c1cc(C(=O)N2Cc3ccc(CN4CCN(C)CC4)cc3C2)c(O)cc1O [Form FB2, (2,4-dihydroxy-5-isopropyl-phenyl)-[5-(4-methyl-piperazin-1-ylmethyl)-1,3-dihydro-isoindol-2-yl]-methanone], the stability in air ([1]; listed as FB2) was “unstable in air and converts to form FB3; also recorded: changed to crystal form FB3”.
For CC(C)c1cc(C(=O)N2Cc3ccc(CN4CCN(C)CC4)cc3C2)c(O)cc1O [Form FB3, (2,4-dihydroxy-5-isopropyl-phenyl)-[5-(4-methyl-piperazin-1-ylmethyl)-1,3-dihydro-isoindol-2-yl]-methanone], the “stability at 40° C. and 75% RH” value [1] was “stable in air at 40 °C and in 75% relative humidity for at least one month; also recorded: stable in air and at 40 °C and 75% RH for at least one month” and the stability in air ([1]; listed as FB3) was “stable in air”.
With CC(C)c1cc(C(=O)N2Cc3ccc(CN4CCN(C)CC4)cc3C2)c(O)cc1O [Form FB4, (2,4-dihydroxy-5-isopropyl-phenyl)-[5-(4-methyl-piperazin-1-ylmethyl)-1,3-dihydro-isoindol-2-yl]-methanone] the “stability of the crystalline form (stable / unstable form)” value (“stability … (stable / unstable form)” below) [1] was “stable” and the stability in air ([1]; listed as FB4) was “stable in air”.
In the case of CC(C)c1cc(C(=O)N2Cc3ccc(CN4CCN(C)CC4)cc3C2)c(O)cc1O [Form FB5, (2,4-dihydroxy-5-isopropyl-phenyl)-[5-(4-methyl-piperazin-1-ylmethyl)-1,3-dihydro-isoindol-2-yl]-methanone], the stability in air ([1]; listed as FB5) was “unstable in air; also recorded: transforms to FB6 in air; also recorded: conversion to form FB6”.
With CC(C)c1cc(C(=O)N2Cc3ccc(CN4CCN(C)CC4)cc3C2)c(O)cc1O [Form FB6, (2,4-dihydroxy-5-isopropyl-phenyl)-[5-(4-methyl-piperazin-1-ylmethyl)-1,3-dihydro-isoindol-2-yl]-methanone] the stability in air ([1]; listed as FB6) was “stable in air; also recorded: stable on air”.
With CC(C)c1cc(C(=O)N2Cc3ccc(CN4CCN(C)CC4)cc3C2)c(O)cc1O.Cl [Form FH1, (2,4-dihydroxy-5-isopropyl-phenyl)-[5-(4-methyl-piperazin-1-ylmethyl)-1,3-dihydro-isoindol-2-yl]-methanone hydrochloride salt] the stability in air ([1]; listed as FH1, hydrochloride salt) was “unstable in air” and the hygroscopicity (Hygroscopicity) was “very hygroscopic and dissolves in air moisture”.
For CC(C)c1cc(C(=O)N2Cc3ccc(CN4CCN(C)CC4)cc3C2)c(O)cc1O.Cl [Form FH2, (2,4-dihydroxy-5-isopropyl-phenyl)-[5-(4-methyl-piperazin-1-ylmethyl)-1,3-dihydro-isoindol-2-yl]-methanone hydrochloride salt], the stability in air ([1]; listed as FH2, hydrochloride salt) was “unstable in air; also recorded: transforms on air into form FH3; also recorded: conversion to form FH3”.
In the case of CC(C)c1cc(C(=O)N2Cc3ccc(CN4CCN(C)CC4)cc3C2)c(O)cc1O.Cl [Form FH3, (2,4-dihydroxy-5-isopropyl-phenyl)-[5-(4-methyl-piperazin-1-ylmethyl)-1,3-dihydro-isoindol-2-yl]-methanone hydrochloride salt], the “stability at 40° C. and 75% RH” value [1] was “stable in air and at 40 °C and 75% RH for at least one month” and the stability in air ([1]; listed as FH3, hydrochloride salt) was “stable in air”.
With CC(C)c1cc(C(=O)N2Cc3ccc(CN4CCN(C)CC4)cc3C2)c(O)cc1O.Cl [Form FH4, (2,4-dihydroxy-5-isopropyl-phenyl)-[5-(4-methyl-piperazin-1-ylmethyl)-1,3-dihydro-isoindol-2-yl]-methanone hydrochloride salt] the stability in air ([1]; listed as FH4, hydrochloride salt) was “unstable and disintegrates in air”.
In the case of CC(C)c1cc(C(=O)N2Cc3ccc(CN4CCN(C)CC4)cc3C2)c(O)cc1O.Cl [Form FH5, (2,4-dihydroxy-5-isopropyl-phenyl)-[5-(4-methyl-piperazin-1-ylmethyl)-1,3-dihydro-isoindol-2-yl]-methanone hydrochloride salt], the stability in air ([1]; listed as FH5, hydrochloride salt) was “unstable and dissolves in moist air”.
In the case of CC(C)c1cc(C(=O)N2Cc3ccc(CN4CCN(C)CC4)cc3C2)c(O)cc1O.C[C@H](O)C(=O)O [Form FL1, (2,4-dihydroxy-5-isopropyl-phenyl)-[5-(4-methyl-piperazin-1-ylmethyl)-1,3-dihydro-isoindol-2-yl]-methanone L-lactate salt], the “stability at 40° C. and 75% RH” value [1] was “stable in air and at 40 °C and 75% RH for at least one month”, the stability in air ([1]; listed as FL) was “stable in air” and the “stability … (stable / unstable form)” value ([1]; listed as FL1) was “stable forms”.
For CC(C)c1cc(C(=O)N2Cc3ccc(CN4CCN(C)CC4)cc3C2)c(O)cc1O.C[C@H](O)C(=O)O [Form FL2, (2,4-dihydroxy-5-isopropyl-phenyl)-[5-(4-methyl-piperazin-1-ylmethyl)-1,3-dihydro-isoindol-2-yl]-methanone L-lactate salt], the stability in air ([1]; listed as FL2) was “stable in air” and the “stability … (stable / unstable form)” value ([1]; listed as FL2) was “stable forms”.
With CC(C)c1cc(C(=O)N2Cc3ccc(CN4CCN(C)CC4)cc3C2)c(O)cc1O.C[C@H](O)C(=O)O [Form FL3, (2,4-dihydroxy-5-isopropyl-phenyl)-[5-(4-methyl-piperazin-1-ylmethyl)-1,3-dihydro-isoindol-2-yl]-methanone L-lactate salt] the stability in air ([1]; listed as FL3) was “transforms in air into form FL1; also recorded: conversion to form FL1” and the “stability … (stable / unstable form)” value ([1]; listed as FL3) was “unstable form”.
In the case of CC(C)c1cc(C(=O)N2Cc3ccc(CN4CCN(C)CC4)cc3C2)c(O)cc1O.O=S(=O)(O)O [Form FS1, (2,4-dihydroxy-5-isopropyl-phenyl)-[5-(4-methyl-piperazin-1-ylmethyl)-1,3-dihydro-isoindol-2-yl]-methanone sulphate salt], the stability in air ([1]; listed as FS1, sulphate salt) was “unstable on air and transforms to form FS3” and the “stability … (stable / unstable form)” value ([1]; listed as FS1, sulphate salt) was “unstable forms”.
In the case of CC(C)c1cc(C(=O)N2Cc3ccc(CN4CCN(C)CC4)cc3C2)c(O)cc1O.O=S(=O)(O)O [Form FS2, (2,4-dihydroxy-5-isopropyl-phenyl)-[5-(4-methyl-piperazin-1-ylmethyl)-1,3-dihydro-isoindol-2-yl]-methanone sulphate salt], the “stability at 40° C. and 75% RH” value ([1]; listed as FS2, sulphate salt) was “transforms to form FS4”, the stability in air ([1]; listed as FS2, sulphate salt) was “unstable on air and transforms to form FS5” and the “stability … (stable / unstable form)” value ([1]; listed as FS2, sulphate salt) was “unstable forms”.
For CC(C)c1cc(C(=O)N2Cc3ccc(CN4CCN(C)CC4)cc3C2)c(O)cc1O.O=S(=O)(O)O [Form FS3, (2,4-dihydroxy-5-isopropyl-phenyl)-[5-(4-methyl-piperazin-1-ylmethyl)-1,3-dihydro-isoindol-2-yl]-methanone sulphate salt], the “stability … (stable / unstable form)” value ([1]; listed as FS3, sulphate salt) was “stable form”.
In the case of CC(C)c1cc(C(=O)N2Cc3ccc(CN4CCN(C)CC4)cc3C2)c(O)cc1O.O=S(=O)(O)O [Form FS4, (2,4-dihydroxy-5-isopropyl-phenyl)-[5-(4-methyl-piperazin-1-ylmethyl)-1,3-dihydro-isoindol-2-yl]-methanone sulphate salt], the “stability in a dry environment” value ([1]; 20° C., 11% RH) was “transformation of form FS4 in a dry environment” and the “stability … (stable / unstable form)” value ([1]; listed as FS4, sulphate salt) was “stable form”.
For CC(C)c1cc(C(=O)N2Cc3ccc(CN4CCN(C)CC4)cc3C2)c(O)cc1O.O=S(=O)(O)O [Form FS5, (2,4-dihydroxy-5-isopropyl-phenyl)-[5-(4-methyl-piperazin-1-ylmethyl)-1,3-dihydro-isoindol-2-yl]-methanone sulphate salt], the “stability … (stable / unstable form)” value ([1]; listed as FS5, sulphate salt) was “stable forms” and the “stability … (stable / unstable form)” value ([1]; listed as FS53, sulphate salt) was “stable form”.
In the case of CC(C)c1cc(C(=O)N2Cc3ccc(CN4CCN(C)CC4)cc3C2)c(O)cc1O.O=S(=O)(O)O [Form FS6, (2,4-dihydroxy-5-isopropyl-phenyl)-[5-(4-methyl-piperazin-1-ylmethyl)-1,3-dihydro-isoindol-2-yl]-methanone sulphate salt], the “stability at 40° C. and 75% RH” value ([1]; listed as FS6, sulphate salt) was “transforms into form FS3”, the stability in air ([1]; listed as FS6, sulphate salt) was “stable in air” and the “stability … (stable / unstable form)” value ([1]; listed as FS6, sulphate salt) was “stable forms”.

Source: patent publication US9428439B2, “Hydrobenzamide derivatives as inhibitors of Hsp90” (priority 2006, dated 2016)
